Patent US20250361240A1, “PYRANOPYRIDINE COMPOUND, PROCESS FOR PREPARING THE SAME, PHARMACEUTICAL COMPOSITION AND USE THEREOF” (Zhejiang Yangli Pharmaceutical Technology Co., Ltd., priority 2024, published 2025)

Assays:
human CYP11B2 = human CYP11B2 (Homo sapiens (Human), UniProt P19099); test: Inhibitory activity against hCYP11B2 in G-402 CYP11B2 high expression stable transformants (aldosterone HTRF); assay type: cell-based
Protocol: (§1) 1. Experimental System: G-402 CYP11B2 or CYP11B1 High Expression Stable Transformants
(§2) The above-mentioned high-expression stable transformants were constructed based on human […] cell line G-402. The artificial lentiviruses were introduced into human CYP11B2 (NM_000498.3) and CYP11B1 (NM_000497.4), respectively.
(§3) Maintenance medium: McCoy's 5A (modified, #16600082, GIBCO)+10% FBS (GIBCO)+1 μg/mL puromycin (A1113803, GIBCO).
(§4) Resuscitation and seeding medium: McCoy's 5A (modified, #16600082, GIBCO)+10% FBS (GIBCO).
(§5) Reaction medium: DMEM/F12 (#11320033, GIBCO)+2.5% activated charcoal filtered FBS (S11695, R & D).
(§6) Seeding: Cells were cultured to a suitable state after resuscitation with maintenance medium, and 96-well flat plates were seeded with seeding medium according to 1×10^4/100 μL/well (unified cell volume).
(§7) Changing solution: The supernatant was aspirated and discarded after seeding overnight (>12 hours) and adherence. 100-150 μL/well serum-free medium was added, and after being aspirated. After aspiration, 50 μL/well reaction medium was added for later use.
(§8) Formulation: Compound was diluted with reaction medium containing 0.4 μM substrate (final experimental concentration is 0.2 μM):
CYP11B2 substrate: 11-deoxycorticosterone (11-deoxycorticosterone, S4243, selleckchem). The final reaction concentration was 0.2 μM
(§9) Loading: The above compound dilutions were added to the cell plates at 50 μL/well. The background and control wells were set.
(§10) Treating and sampling: The cell plates were incubated in a cell incubator for 16 hours after loading, and then each cell plate was centrifuged at 450 g for 2 min. 75 μL supernatant was transferred to a collection plate and frozen at −80° C. for future use (or direct detection).
(§11) Detection: Homogeneous time-resolved fluorescence kit (Cisbio HTRF kit, Cat.64ALDPEG, Cat.62CRTPEG) was used to determine the concentration of aldosterone or cortisol in the supernatant.
(§12) Analysis: The absolute IC50 (Abs IC50) for each compound was calculated using a four parameter fit.

human CYP11B1 = human CYP11B1 (Homo sapiens (Human), UniProt P15538); test: Inhibitory activity against hCYP11B1 in G-402 CYP11B1 high expression stable transformants (cortisol HTRF); assay type: cell-based; conditions: G-402 CYP11B1 cells, 0.2 μM 11-deoxycortisol, 16 hours; read-out: hCYP11B1 Abs IC50
Protocol: as §1, §2, §3, §4, §5, §6, §7, §8
CYP11B1 substrate: 11-deoxycortisol (11-deoxycortisol, S4775, selleckchem). The final reaction concentration was 0.2 μM.
as §9, §10, §11, §12

CYP1A2 = CYP1A2 (Homo sapiens (Human), UniProt P05177); test: In vitro inhibitory activity against common CYP450 enzymes: CYP1A2; assay type: in vitro ADME; conditions: human, microsomes, 10 min
Protocol: (§13) A working solution of the test compound was prepared in a solvent of dimethyl sulfoxide (DMSO) (starting at a final concentration of 50 μM, 3-fold dilution of 7 concentration points). The corresponding microsomes (CORNING, Cat No.452117) and the corresponding substrate solution were prepared (components were shown in Table 2). The working solution of the test compound and the corresponding microsomes were mixed with the corresponding substrate solution and the HLM working solution. The mixture was preheated in a 37.0° C. water bath for 10 min. NADPH cofactor (BONTAC, Cat No.BT04) was added. The resultant mixture was incubated for 10 min in a 37.0° C. water bath. The reaction was terminated by adding cold stop solution. [table] [table] The sample was centrifuged at 4000 rpm for 20 min to precipitate protein and the supernatant was transferred to HPLC water and shaken for 10 min.

CYP2C9 = CYP2C9 (Homo sapiens (Human), UniProt P11712); test: In vitro inhibitory activity against common CYP450 enzymes: CYP2C9; assay type: in vitro ADME; conditions: microsomes, substrate Diclofenac
Protocol: as §13

CYP2C19 = CYP2C19 (Homo sapiens (Human), UniProt P33261); test: In vitro inhibitory activity against common CYP450 enzymes: CYP2C19; assay type: in vitro ADME; conditions: microsomes, substrate (S)-(+)-Mephenytoin
Protocol: as §13

CYP2D6 = CYP2D6 (Homo sapiens (Human), UniProt P10635); test: In vitro inhibitory activity against common CYP450 enzymes: CYP2D6; assay type: in vitro ADME; conditions: microsomes, substrate Dextromethorphan
Protocol: as §13

CYP3A-M = CYP3A-M (Homo sapiens, UniProt P08684); test: In vitro inhibitory activity against common CYP450 enzymes: CYP3A (midazolam); assay type: in vitro ADME; conditions: microsomes, substrate Midazolam
Protocol: as §13

aldosterone synthesis = test: Pharmacodynamic test in cynomolgus monkeys with ACTH stimulation: aldosterone in plasma; assay type: in vivo, cynomolgus monkeys (Macaca fascicularis); conditions: 0.5 mg/kg oral
Excerpt: (§14) Adult cynomolgus monkeys (Macaca fascicularis) with suitable body weight and age were selected. 1 male and 1 female cynomolgus monkeys were used for experiment. The adaptation period was 1 week. On the day of the experiment, monkeys were individually housed in stainless steel mesh cages for testing.
(§15) Oral treatment and ACTH working solution (working solution diluted to the desired concentration in PBS sterile solution by ultrapure water filtration through a 0.22 μm filter using Tetracosactrin (HY-P0060, MCE)) were administered as follows: • T=0, 2 monkeys in each group were orally administered 0.5 mg/kg (compound was suspended in 5% aqueous sodium hydroxymethylcellulose solution as vehicle) in a fixed volume of 2 mL/kg; • T=+1 hour (i.e., 1 hour after administration), 14.5 μg/kg of the aforementioned ACTH working solution was injected intramuscularly.
(§16) Sampling test: Blood samples (collected in EDTA anticoagulant tubes) were collected before oral administration (Pre-dose) and 0.5 h, 1 h, 2 h, 4 h, 6 h and 12 h after administration for cortisol concentration measurement in plasma. The blood was centrifuged at 10000 rpm for 15 minutes at 4° C., followed by separation of the plasma and uniform storage at −80° C. for further analysis using an Roche biochemical analyzer to detect aldosterone and cortisol in plasma, and a portion of the plasma (0.5 h, 1 h, 2 h, 4 h, 6 h, and 12 h after administration, and an additional blood collection after 24 h) was taken simultaneously to determine the pharmacokinetic parameters by LC/MS.
(§17) The above experiment was repeated except that: T=0, two monkeys in each group were orally administered at a dose of 0.05 mg/kg (compound was suspended in 5% aqueous sodium hydroxymethylcellulose as vehicle) in a fixed volume of 2 mL/kg.

cortisol levels = test: Pharmacodynamic test in cynomolgus monkeys with ACTH stimulation: cortisol in plasma; assay type: in vivo, cynomolgus monkeys (Macaca fascicularis); conditions: 0.5 mg/kg oral
Excerpt: as §14, §15, §16, §17

[1] = Pharmacokinetic test in cynomolgus monkeys (LC/MS); assay type: in vivo, cynomolgus monkeys (Macaca fascicularis); conditions: both sexes, cynomolgus monkey, plasma, 0.5 mg/kg, 0.5mpk oral
Excerpt: as §14, §15, §16, §17

human CYP11B2, sequence (P19099 25-503): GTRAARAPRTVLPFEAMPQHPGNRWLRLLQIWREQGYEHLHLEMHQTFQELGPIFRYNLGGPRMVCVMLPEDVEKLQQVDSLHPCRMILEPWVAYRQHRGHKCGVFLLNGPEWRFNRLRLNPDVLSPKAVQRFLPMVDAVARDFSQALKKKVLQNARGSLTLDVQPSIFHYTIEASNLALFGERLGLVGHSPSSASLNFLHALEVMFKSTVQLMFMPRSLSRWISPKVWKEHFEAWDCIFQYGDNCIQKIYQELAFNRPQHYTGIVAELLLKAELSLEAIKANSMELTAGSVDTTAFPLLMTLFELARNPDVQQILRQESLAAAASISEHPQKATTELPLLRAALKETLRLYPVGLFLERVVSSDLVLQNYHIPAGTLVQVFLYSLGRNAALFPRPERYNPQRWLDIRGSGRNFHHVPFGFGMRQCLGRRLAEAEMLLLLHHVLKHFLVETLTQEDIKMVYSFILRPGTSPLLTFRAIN
CYP2C19, sequence (P33261 whole entry): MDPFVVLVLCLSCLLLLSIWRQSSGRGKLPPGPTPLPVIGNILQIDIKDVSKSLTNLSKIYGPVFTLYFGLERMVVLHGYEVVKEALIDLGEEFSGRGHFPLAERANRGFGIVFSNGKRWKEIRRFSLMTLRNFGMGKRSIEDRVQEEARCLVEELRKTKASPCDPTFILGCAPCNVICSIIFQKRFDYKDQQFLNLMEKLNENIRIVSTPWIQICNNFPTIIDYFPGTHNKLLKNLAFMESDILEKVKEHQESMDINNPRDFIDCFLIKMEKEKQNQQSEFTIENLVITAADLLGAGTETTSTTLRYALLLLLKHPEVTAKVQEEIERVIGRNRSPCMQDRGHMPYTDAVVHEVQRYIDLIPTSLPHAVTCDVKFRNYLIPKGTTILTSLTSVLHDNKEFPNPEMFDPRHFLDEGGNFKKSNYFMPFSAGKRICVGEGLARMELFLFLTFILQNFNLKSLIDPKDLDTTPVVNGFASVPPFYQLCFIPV
CYP1A2, sequence (P05177 whole entry): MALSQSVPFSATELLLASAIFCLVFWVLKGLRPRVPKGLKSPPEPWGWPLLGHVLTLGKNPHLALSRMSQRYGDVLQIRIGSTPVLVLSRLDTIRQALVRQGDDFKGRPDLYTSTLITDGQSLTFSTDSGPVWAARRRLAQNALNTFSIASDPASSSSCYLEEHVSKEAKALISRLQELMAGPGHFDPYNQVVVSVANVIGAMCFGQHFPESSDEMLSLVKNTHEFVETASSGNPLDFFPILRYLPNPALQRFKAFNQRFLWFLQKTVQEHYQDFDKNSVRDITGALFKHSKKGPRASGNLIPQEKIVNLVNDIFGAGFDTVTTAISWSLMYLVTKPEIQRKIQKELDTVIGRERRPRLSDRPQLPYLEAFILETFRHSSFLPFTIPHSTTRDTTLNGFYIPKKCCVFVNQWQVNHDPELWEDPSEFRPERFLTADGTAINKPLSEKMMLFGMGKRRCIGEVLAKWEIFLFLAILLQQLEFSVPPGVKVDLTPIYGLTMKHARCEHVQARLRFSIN
CYP2D6, sequence (P10635 whole entry): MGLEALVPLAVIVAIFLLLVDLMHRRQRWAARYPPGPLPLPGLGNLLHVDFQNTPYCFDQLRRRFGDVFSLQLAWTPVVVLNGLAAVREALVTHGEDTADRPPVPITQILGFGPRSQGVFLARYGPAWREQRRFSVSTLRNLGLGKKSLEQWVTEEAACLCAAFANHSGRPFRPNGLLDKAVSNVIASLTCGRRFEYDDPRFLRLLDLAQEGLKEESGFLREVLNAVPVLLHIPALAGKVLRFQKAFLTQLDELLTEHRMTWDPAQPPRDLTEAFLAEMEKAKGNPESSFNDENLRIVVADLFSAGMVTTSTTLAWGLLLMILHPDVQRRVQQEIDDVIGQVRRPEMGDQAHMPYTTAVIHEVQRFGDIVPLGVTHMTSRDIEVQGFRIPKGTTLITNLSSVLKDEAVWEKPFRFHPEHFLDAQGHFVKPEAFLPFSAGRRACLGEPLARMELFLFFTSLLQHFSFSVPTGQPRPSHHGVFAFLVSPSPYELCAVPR
CYP2C9, sequence (P11712 whole entry): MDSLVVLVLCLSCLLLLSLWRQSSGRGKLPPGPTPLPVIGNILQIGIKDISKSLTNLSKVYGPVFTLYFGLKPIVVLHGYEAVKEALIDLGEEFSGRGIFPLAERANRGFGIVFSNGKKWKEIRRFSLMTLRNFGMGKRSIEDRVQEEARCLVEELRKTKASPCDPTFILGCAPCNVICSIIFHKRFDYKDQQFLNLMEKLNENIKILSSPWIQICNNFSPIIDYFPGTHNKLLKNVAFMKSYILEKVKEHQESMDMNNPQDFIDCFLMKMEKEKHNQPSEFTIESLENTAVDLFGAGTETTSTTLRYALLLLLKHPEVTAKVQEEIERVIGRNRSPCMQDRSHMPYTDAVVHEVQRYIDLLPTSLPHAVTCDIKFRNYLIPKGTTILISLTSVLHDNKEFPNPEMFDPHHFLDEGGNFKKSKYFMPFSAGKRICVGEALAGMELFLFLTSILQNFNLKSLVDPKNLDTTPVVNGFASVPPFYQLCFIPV
CYP3A-M, sequence (P08684 2-503 limits assumed): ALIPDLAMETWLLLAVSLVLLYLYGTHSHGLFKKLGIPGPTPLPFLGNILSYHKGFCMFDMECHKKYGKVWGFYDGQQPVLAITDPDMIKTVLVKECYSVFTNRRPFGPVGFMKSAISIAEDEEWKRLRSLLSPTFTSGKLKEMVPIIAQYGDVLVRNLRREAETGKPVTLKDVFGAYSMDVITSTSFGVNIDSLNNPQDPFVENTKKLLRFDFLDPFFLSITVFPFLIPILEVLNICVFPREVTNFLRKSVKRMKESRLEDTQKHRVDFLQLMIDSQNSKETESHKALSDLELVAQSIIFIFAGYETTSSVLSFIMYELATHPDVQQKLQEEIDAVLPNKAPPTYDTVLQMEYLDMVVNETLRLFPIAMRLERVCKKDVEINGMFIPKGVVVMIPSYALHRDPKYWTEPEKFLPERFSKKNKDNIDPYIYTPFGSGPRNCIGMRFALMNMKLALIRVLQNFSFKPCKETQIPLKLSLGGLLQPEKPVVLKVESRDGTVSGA
human CYP11B1, sequence (P15538 25-503): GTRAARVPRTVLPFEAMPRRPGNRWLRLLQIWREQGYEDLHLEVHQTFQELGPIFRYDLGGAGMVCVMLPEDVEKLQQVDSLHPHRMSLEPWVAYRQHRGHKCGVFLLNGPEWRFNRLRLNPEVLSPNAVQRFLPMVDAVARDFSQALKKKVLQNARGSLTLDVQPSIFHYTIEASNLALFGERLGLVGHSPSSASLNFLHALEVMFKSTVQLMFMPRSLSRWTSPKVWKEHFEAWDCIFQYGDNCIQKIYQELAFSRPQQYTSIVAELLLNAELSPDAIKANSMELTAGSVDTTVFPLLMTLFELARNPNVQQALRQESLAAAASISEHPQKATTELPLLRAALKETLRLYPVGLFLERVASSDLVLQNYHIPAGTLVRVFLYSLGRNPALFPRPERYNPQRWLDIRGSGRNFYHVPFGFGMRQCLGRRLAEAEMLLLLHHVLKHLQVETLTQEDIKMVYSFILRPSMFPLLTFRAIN

For CCC(=O)N[C@@H]1CCOc2c(-c3ccc4c(c3)CCC(=O)N4C)cncc21 [Example 1, (R)-N-(8-(1-methyl-2-oxo-1,2,3,4-tetrahydroquinolin-6-yl)-3,4-dihydro-2H-pyran[3,2-c]pyridin-4-yl)propanamide], the IC50 (human CYP11B2; G-402 CYP11B2 cells, 0.2 μM 11-deoxycorticosterone, 16 hours, read-out: hCYP11B2 (AS) Abs IC50) was 0.0264 µM, the “hCYP11B ½ Selectivity Fold” value (human CYP11B2; hCYP11B1 IC50 relative to hCYP11B2 IC50) was 159.64 Fold and the IC50 (human CYP11B1) was 4.21 µM. It also gave an IC50 (CYP1A2) greater than 50 µM, an IC50 (CYP2C9) greater than 50 µM and an IC50 (CYP2C19) greater than 50 µM. For the same molecule, the IC50 (CYP2D6) was greater than 50 µM, the IC50 (CYP3A-M) was greater than 50 µM and the “Aldosterone Concentration in Plasma” value (aldosterone synthesis; 0.5 h) was 859.25 pg/mL. For the same molecule, the “Aldosterone Concentration in Plasma” value (aldosterone synthesis; 1 h (ACTH at +1 hour)) was 358.37 pg/mL, the “Aldosterone Concentration in Plasma” value (aldosterone synthesis; 2 h) was 122.85 pg/mL and the “Aldosterone Concentration in Plasma” value (aldosterone synthesis; 4 h) was 90.51 pg/mL. The “Aldosterone Concentration in Plasma” value (aldosterone synthesis; 6 h) was 90.39 pg/mL, the “Aldosterone Concentration in Plasma” value (aldosterone synthesis; 12 h) was 89.42 pg/mL and the “Aldosterone Concentration in Plasma” value (aldosterone synthesis; Pre-dose) was 222.84 pg/mL. For the same molecule, the “Cortisol Concentration in Plasma” value (cortisol levels; 0.5 h) was 1000.0 pg/mL, the “Cortisol Concentration in Plasma” value (cortisol levels; 1 h (ACTH at +1 hour)) was 876.5 pg/mL and the “Cortisol Concentration in Plasma” value (cortisol levels; 2 h) was 1180.0 pg/mL. The “Cortisol Concentration in Plasma” value (cortisol levels; 4 h) was 602.7 pg/mL, the “Cortisol Concentration in Plasma” value (cortisol levels; 6 h) was 476.3 pg/mL and the “Cortisol Concentration in Plasma” value (cortisol levels; 12 h) was 377.3 pg/mL. The “Cortisol Concentration in Plasma” value (cortisol levels; Pre-dose) was 699.3 pg/mL, the Cmax [1] was 152 ng/mL and the Tmax [1] was 2 h. The half-life [1] was 9.09 h and the AUC(0-t) ([1]; read-out: AUC0-24 h) was 1960 ng·h/mL.
